Results taken from patent publication US8263605B2, “Modulators of muscarinic receptors” (Vertex Pharmaceutical Incorporated, priority 2006, dated 2012).

Tests used:
M1 muscarinic receptor = target: T1, M1 muscarinic receptor (Homo sapiens, UniProt P11229); test: Functional mobilization of intracellular calcium (FLIPR), M1-CHO cells; type: cell-based; settings: for Emax: 100% efficacy is the maximum response obtained with the Carbachol control; for M1 Activity: CHO cells expressing M1, calcium mobilization
T1 construct: expressed in transfected cells; host or cells: CHO (M1-CHO)
T1 sequence (P11229 1-460): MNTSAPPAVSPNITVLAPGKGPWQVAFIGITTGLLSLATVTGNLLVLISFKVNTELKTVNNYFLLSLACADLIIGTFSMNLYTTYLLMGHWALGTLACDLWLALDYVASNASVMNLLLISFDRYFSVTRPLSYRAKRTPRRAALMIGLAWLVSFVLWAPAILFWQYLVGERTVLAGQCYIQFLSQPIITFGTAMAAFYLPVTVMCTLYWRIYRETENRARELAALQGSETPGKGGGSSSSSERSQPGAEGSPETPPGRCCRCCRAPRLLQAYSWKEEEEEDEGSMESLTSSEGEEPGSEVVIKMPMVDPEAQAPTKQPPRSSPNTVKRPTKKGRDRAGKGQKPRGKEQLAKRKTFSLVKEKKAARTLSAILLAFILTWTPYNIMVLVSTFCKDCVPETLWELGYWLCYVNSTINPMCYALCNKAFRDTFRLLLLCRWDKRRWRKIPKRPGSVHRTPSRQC
Summary of the method: (§1)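 Recombinant CHO cells loaded with Fluo-3 AM or Calcium 3 dye; fluorescence recorded 60 s on FLIPR in pH 7.4 buffer with 1 mM probenecid, 0.5% DMSO. Agonist mode: compound alone; antagonist mode: 15 min preincubation (or co-application) then carbachol at EC80. Efficacy relative to maximal carbachol response.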

M4 muscarinic receptor = target: T2, M4 muscarinic receptor (Homo sapiens, UniProt P08173); test: Functional mobilization of intracellular calcium (FLIPR), M4-CHO cells; type: cell-based; settings: for Emax: 100% efficacy is the maximum response obtained with the Carbachol control; for M4 Activity: CHO cells expressing M4, calcium mobilization
T2 construct: expressed in transfected cells; host or cells: CHO (M4-CHO)
T2 sequence (P08173 1-479): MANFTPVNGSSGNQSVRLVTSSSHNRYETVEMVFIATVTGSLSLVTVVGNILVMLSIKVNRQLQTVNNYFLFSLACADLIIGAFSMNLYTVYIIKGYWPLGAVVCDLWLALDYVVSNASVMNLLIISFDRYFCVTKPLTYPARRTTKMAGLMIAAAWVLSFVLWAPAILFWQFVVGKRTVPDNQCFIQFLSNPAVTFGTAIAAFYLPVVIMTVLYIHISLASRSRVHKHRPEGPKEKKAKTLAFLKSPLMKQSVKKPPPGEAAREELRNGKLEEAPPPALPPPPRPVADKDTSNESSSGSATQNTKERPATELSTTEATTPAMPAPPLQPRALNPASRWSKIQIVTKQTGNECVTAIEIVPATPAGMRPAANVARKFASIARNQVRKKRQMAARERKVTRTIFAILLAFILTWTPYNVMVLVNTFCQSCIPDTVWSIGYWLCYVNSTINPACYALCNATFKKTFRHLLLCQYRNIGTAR
Summary of the method: as §1

Structure (SMILES) | Emax (M1 muscarinic receptor) [%] | M1 Activity (M1 muscarinic receptor) | Emax (M4 muscarinic receptor) [%] | M4 Activity (M4 muscarinic receptor)
CC#CCOC(=O)N1C2CCC1CC(N1CCC3(CCN(C(=O)N(C)C)c4ccccc43)CC1)C2 (stereo not shown) [compound 29] | > 100 | +++ (activity was measured to be less than 2.0 μM) | 25 to 100 | +++ (activity was measured to be less than 2.0 μM)
C#CCOC(=O)N1C2CCC1CC(N1CCC3(CC1)CN(C(=O)N(C)C)c1ccccc13)C2 (stereo not shown) [compound 94] | 25 to 100 | +++ (activity was measured to be less than 2.0 μM) | 25 to 100 | +++ (activity was measured to be less than 2.0 μM)
COCCOC(=O)N1CCC(N2CCC3(CC2)CN(C(=O)N(C)C)c2ccccc23)CC1 [compound 43] | 25 to 100 | +++ (activity was measured to be less than 2.0 μM) | 25 to 100 | +++ (activity was measured to be less than 2.0 μM)
Cc1nsc(N2C3CCC2CC(N2CCC4(CC2)CN(C(=O)N(C)C)c2ccccc24)C3)n1 (stereo not shown) [Compound No. 65, N,N-dimethyl-1′-(8-(3-methyl-1,2,4-thiadiazol-5-yl)-8-azabicyclo[3.2.1]octan-3-yl)spiro[indoline-3,4′-piperidine]-1-carboxamide] | 25 to 100 | +++ (activity was measured to be less than 2.0 μM) | 25 to 100 | +++ (activity was measured to be less than 2.0 μM)
CCc1nsc(N2CCC(N3CCC4(CCN(C(=O)N(C)C)c5ccccc54)CC3)CC2)n1 [compound 7] | 25 to 100 | +++ (activity was measured to be less than 2.0 μM) | 25 to 100 | +++ (activity was measured to be less than 2.0 μM)
CN(C)C(=O)N1CC2(CCN(C3CCN(c4nncs4)CC3)CC2)c2ccccc21 [compound 89] | < 25 | ++ (activity was measured to be from 2.0 μM to 10.0 μM) | 25 to 100 | ++ (activity was measured to be from 2.0 μM to 10.0 μM)
CC#CCOC(=O)N1CCC(N2CCC3(CCN(C(C)=O)c4ccccc43)CC2)CC1 [compound 13] | 25 to 100 | +++ (activity was measured to be less than 2.0 μM) | 25 to 100 | +++ (activity was measured to be less than 2.0 μM)
Cc1nsc(C2CCC(N3CCC4(CC3)CN(C(=O)N(C)C)c3ccccc34)CC2)n1 (stereo not shown) [compound 74] | 25 to 100 | +++ (activity was measured to be less than 2.0 μM) | 25 to 100 | +++ (activity was measured to be less than 2.0 μM)
CCOC(=O)N1CCC(N2CCC3(CCN(C(=O)N(C)C)c4ccccc43)CC2)CC1 [compound 3] | 25 to 100 | +++ (activity was measured to be less than 2.0 μM) | > 100 | +++ (activity was measured to be less than 2.0 μM)
CC(C)OC(=O)N1C2CCC1CC(N1CCC3(CC1)CN(C(=O)N(C)C)c1ccccc13)C2 (stereo not shown) [compound 48] | 25 to 100 | +++ (activity was measured to be less than 2.0 μM) | 25 to 100 | +++ (activity was measured to be less than 2.0 μM)
COC(=O)N1CC[C@H](CN2CCC3(CC2)CN(C(=O)N(C)C)c2ccccc23)C1 [compound 59] | 25 to 100 | +++ (activity was measured to be less than 2.0 μM) | 25 to 100 | +++ (activity was measured to be less than 2.0 μM)
COCCOC(=O)N1CCCC(N2CCC3(CC2)CN(C(=O)N(C)C)c2ccccc23)CC1 (stereo not shown) [compound 72] | 25 to 100 | +++ (activity was measured to be less than 2.0 μM) | 25 to 100 | +++ (activity was measured to be less than 2.0 μM)
CCOC(=O)N1CCCC(N2CCC3(CC2)CN(C(=O)N(C)C)c2ccccc23)CCC1 [compound 107] | > 100 | +++ (activity was measured to be less than 2.0 μM) | > 100 | +++ (activity was measured to be less than 2.0 μM)
Cc1csc(N2CCC(N3CCC4(CCN(C(=O)N(C)C)c5ccccc54)CC3)CC2)n1 [compound 22] | 25 to 100 | ++ (activity was measured to be from 2.0 μM to 10.0 μM) | 25 to 100 | ++ (activity was measured to be from 2.0 μM to 10.0 μM)
C#CCOC(=O)N1C2CCC1CC(N1CCC3(CCN(C(=O)N(C)C)c4ccccc43)CC1)C2 (stereo not shown) [Compound No. 28, prop-2-ynyl 3-(1′-(dimethylcarbamoyl)-2′,3′-dihydro-1′H-spiro[piperidine-4,4′-quinoline]-1-yl)-8-azabicyclo[3.2.1]octane-8-carboxylate] | 25 to 100 | +++ (activity was measured to be less than 2.0 μM) | 25 to 100 | +++ (activity was measured to be less than 2.0 μM)
CC#CCOC(=O)N1C2CCC1CC(N1CCC3(CC1)CN(C(=O)N(C)C)c1ccccc13)C2 (stereo not shown) [compound 95] | 25 to 100 | +++ (activity was measured to be less than 2.0 μM) | 25 to 100 | +++ (activity was measured to be less than 2.0 μM)
Cc1ncc(N2CCC(N3CCC4(CC3)CN(C(=O)N(C)C)c3ccccc34)CC2)nc1C [compound 88] | 25 to 100 | ++ (activity was measured to be from 2.0 μM to 10.0 μM) | 25 to 100 | +++ (activity was measured to be less than 2.0 μM)
CCc1nsc(N2C3CCC2CC(N2CCC4(CCN(C(=O)N(C)C)c5ccccc54)CC2)C3)n1 (stereo not shown) [Compound No. 32, 1-(8-(3-ethyl-1,2,4-thiadiazol-5-yl)-8-azabicyclo[3.2.1]octan-3-yl)-N,N-dimethyl-2′,3′-dihydro-1′ H-spiro[piperidine-4,4′-quinoline]-1′-carboxamide] | 25 to 100 | +++ (activity was measured to be less than 2.0 μM) | 25 to 100 | +++ (activity was measured to be less than 2.0 μM)
C#CCOC(=O)N1CC[C@@H](CN2CCC3(CC2)CN(C(=O)N(C)C)c2ccccc23)C1 [compound 97] | 25 to 100 | +++ (activity was measured to be less than 2.0 μM) | 25 to 100 | +++ (activity was measured to be less than 2.0 μM)
CN(C)C(=O)N1CC2(CCN(C[C@H]3CCN(C(=O)OC4CCOC4)C3)CC2)c2ccccc21 (stereo partly shown) [compound 111] | < 25 | ++ (activity was measured to be from 2.0 μM to 10.0 μM) | < 25 | ++ (activity was measured to be from 2.0 μM to 10.0 μM)
Cc1nsc(N2CC[C@@H](CN3CCC4(CC3)CN(C(=O)N(C)C)c3ccccc34)C2)n1 [compound 85] | 25 to 100 | +++ (activity was measured to be less than 2.0 μM) | > 100 | +++ (activity was measured to be less than 2.0 μM)
CC#CCOC(=O)N1CC[C@H](CN2CCC3(CC2)CN(C(=O)N(C)C)c2ccccc23)C1 [compound 101] | 25 to 100 | +++ (activity was measured to be less than 2.0 μM) | > 100 | +++ (activity was measured to be less than 2.0 μM)
COC(=O)N1CCC(N2CCC3(CC2)CN(C(=O)N(C)C)c2ccccc23)CC1 [compound 38] | 25 to 100 | ++ (activity was measured to be from 2.0 μM to 10.0 μM) | 25 to 100 | +++ (activity was measured to be less than 2.0 μM)
CN(C)C(=O)N1CC2(CCN(C[C@@H]3CCN(c4cnccn4)C3)CC2)c2ccccc21 [compound 109] | 25 to 100 | +++ (activity was measured to be less than 2.0 μM) | > 100 | +++ (activity was measured to be less than 2.0 μM)
Cc1ncc(N2CCC(N3CCC4(CCN(C(=O)N(C)C)c5ccccc54)CC3)CC2)nc1C [Compound No. 20, 1-(1-(5,6-dimethylpyrazin-2-yl)piperidin-4-yl)-N,N-dimethyl-2′,3′-dihydrospiro[piperidine-4,4′-quinoline]-1′-carboxamide] | 25 to 100 | ++ (activity was measured to be from 2.0 μM to 10.0 μM) | 25 to 100 | +++ (activity was measured to be less than 2.0 μM)
